Where “and” joins values, the source holds several entries; their conditions need not be identical. Equal values may be shown once. Read-outs that look alike come from different tables or passages of the source.
Legend:
CYP2C8 = target: T1, CYP2C8 (Homo sapiens, UniProt P10632); assay: Inhibition of recombinant CYP2C8 (probe paclitaxel); format: in vitro ADME
T1 sequence (P10632 1-490): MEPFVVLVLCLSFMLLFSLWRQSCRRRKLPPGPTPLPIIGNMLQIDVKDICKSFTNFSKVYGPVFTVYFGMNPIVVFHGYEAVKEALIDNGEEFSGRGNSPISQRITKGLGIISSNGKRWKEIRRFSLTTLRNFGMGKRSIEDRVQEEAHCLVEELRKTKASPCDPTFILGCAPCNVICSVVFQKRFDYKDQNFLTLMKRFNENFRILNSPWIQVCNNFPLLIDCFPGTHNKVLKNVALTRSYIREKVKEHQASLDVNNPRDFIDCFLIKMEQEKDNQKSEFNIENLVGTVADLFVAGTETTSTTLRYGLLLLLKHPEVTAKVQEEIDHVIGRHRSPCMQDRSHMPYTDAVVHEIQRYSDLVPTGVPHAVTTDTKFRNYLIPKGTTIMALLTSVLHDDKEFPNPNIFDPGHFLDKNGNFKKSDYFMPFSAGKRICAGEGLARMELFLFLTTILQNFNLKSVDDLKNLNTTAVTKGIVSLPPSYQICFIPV
Protocol: In this study, phenacetin (100 μM), coumarin (100 μM), bupropion (100 μM), paclitaxel (60 μM), tolbutamide (200 μM), mephenytoin (100 μM), chlorzoxazone (200 μM) and nifedipine (40 μM) have been used as the probe substrates for CYP1A2, 2A6, 2B6, 2C8, 2C9, 2C19, 2E1 and 3A4, respectively.

UGT2B7 = target: T2, UGT2B7 (Homo sapiens, UniProt P16662); assay: Inhibition of expressed UGT2B7 (probe 4-MU); format: in vitro ADME
T2 sequence (P16662 24-529): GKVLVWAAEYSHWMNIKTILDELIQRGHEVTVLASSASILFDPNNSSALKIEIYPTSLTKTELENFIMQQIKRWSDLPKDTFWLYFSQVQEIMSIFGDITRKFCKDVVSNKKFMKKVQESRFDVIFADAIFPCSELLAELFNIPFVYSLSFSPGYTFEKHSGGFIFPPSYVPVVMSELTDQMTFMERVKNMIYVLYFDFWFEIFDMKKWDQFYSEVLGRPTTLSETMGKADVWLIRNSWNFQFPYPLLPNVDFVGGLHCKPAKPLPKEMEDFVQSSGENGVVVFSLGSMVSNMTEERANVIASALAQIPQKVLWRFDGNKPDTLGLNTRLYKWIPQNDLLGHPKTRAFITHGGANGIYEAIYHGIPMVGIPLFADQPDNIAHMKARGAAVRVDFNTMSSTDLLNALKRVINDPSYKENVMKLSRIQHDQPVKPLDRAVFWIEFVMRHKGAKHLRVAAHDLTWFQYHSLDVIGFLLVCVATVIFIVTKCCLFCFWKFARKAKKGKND
Protocol: After centrifugation (13,800g, 10 min), the supernatant (8 μL) was obtained for determination by UHPLC system.
Similarly, β-estradiol (60 μM), propofol (40 μM) and 4-MU (350 μM) were typically used as the substrates for UGT1A1, 1A9 and 2B7, respectively. After optimization of incubation conditions (Additional file 1: Fig. S2), the protein concentrations for UGT1A1, 1A9, and 2B7 were 0.125, 0.05, and 0.05 mg/mL, respectively.

[1] = Urinary (renal) excretion in rats after a 30-min infusion of Kang-Ai injection; format: in vivo, Sprague–Dawley rats; conditions: for CL renal: male, Sprague-Dawley, rat; for fe-U,0–12h (fraction of dose excreted into urine): rat urine 0–12 h; for fraction of dose excreted unchanged via renal plus hepatobiliary excretion (sum of fe-U and fe-B): rat urine + bile, 0–12 h
How it was run: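 Urine collected in metabolic cages at 0–4, 4–8, 8–12 h and bile at 0–3, 3–6, 6–9, 9–12 h after infusion start, weighed and frozen at −80 °C. Non-compartmental analysis; CLR and CLB as cumulative urinary or biliary amount divided by plasma AUC0-∞, fe-U and fe-B as cumulative amount/dose; mean ± SD (n = 3).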

[2] = Plasma pharmacokinetics in rats after a 30-min intravenous infusion of Kang-Ai injection; format: in vivo, Sprague–Dawley rats; conditions: male, Sprague-Dawley
How it was run: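 Fasted male Sprague–Dawley rats (250 ± 20 g) got a single 30-min tail-vein infusion of Kang-Ai injection at 6 mL/kg. Jugular blood was sampled from 5 min to 12 h for plasma. Parameters came from non-compartmental analysis (trapezoidal AUC), n = 3.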

[3] = recombinant isozyme, mean ± SD of triplicate, unit not given (IC50 classes in μM), read-out: IC50 towards CYP2C8
[4] = recombinant isozyme, mean ± SD of triplicate, unit not given (IC50 classes in μM), read-out: IC50 towards UGT2B7
[5] = urine and plasma, Kang-Ai injection 6 mL/kg iv, read-out: CLR (renal excretory clearance) (converted)
[6] = plasma, rat, 30-min iv infusion of Kang-Ai injection 6 mL/kg, Table 1 unit, read-out: CLtot, p (converted)
[7] = plasma, rat, 30-min iv infusion of Kang-Ai injection 6 mL/kg, Table 1 unit, read-out: VSS
[8] = rat plasma, 30-min iv infusion of Kang-Ai injection 6 mL/kg, read-out: t1/2 (converted)
[9] = rat plasma, 30-min iv infusion of Kang-Ai injection 6 mL/kg, read-out: Cmax

SMILES	IC50 (CYP2C8; [3])	IC50 (UGT2B7; [4])	CL renal [1, 5]	fe-U,0–12h (fraction of dose excreted into urine) ([1]; Kang-Ai injection 6 mL/kg iv)	fraction of dose excreted unchanged via renal plus hepatobiliary excretion (sum of fe-U and fe-B) ([1]; Kang-Ai injection 6 mL/kg iv)	clearance [2, 6]	Vd [2, 7]	half-life [2, 8]	Cmax [2, 9]	further results
CC(C)=CCC[C@](C)(O)[C@H]1CC[C@]2(C)[C@@H]1[C@H](O)C[C@@H]1[C@@]3(C)CC[C@H](O)C(C)(C)[C@@H]3[C@@H](O[C@@H]3O[C@H](CO)[C@@H](O)[C@H](O)[C@H]3O[C@@H]3O[C@H](CO)[C@@H](O)[C@H](O)[C@H]3O)C[C@]12C [Compound C7, Ginsenoside Rf]	> 100 µM	> 100 µM	0.322 mL/min	17.77 ± 3.90%	–	–	–	–	–	Cmax ([2]; rat, in vivo, iv): 943 ± 172 nM; clearance ([2]; rat, in vivo, iv): 1.82 mL/min; half-life ([2]; rat, in vivo, iv): 0.63 ± 0.31 h
O=C1CCC[C@@H]2[C@H]3CCC[N+]4([O-])CCC[C@@H](CN12)[C@@H]34 (stereo partly shown) [Compound A3, Oxymatrine]	–	–	–	–	–	–	–	–	–	IC50 (CYP2C8; IC50 towards CYP2C8, recombinant isozyme, mean ± SD of triplicate, unit not given (IC50 classes in μM)): > 100 µM; IC50 (UGT2B7): > 100 µM; CL renal ([1]; in vivo, iv): 1.18 mL/min; Cmax ([2]; rat, in vivo, iv): 423000 ± 55500 nM; Vd ([2]; rat, in vivo, iv): 0.22 L/kg; clearance ([2]; rat, in vivo, iv): 1.86 mL/min/kg and 1.86 mL/min; half-life ([2]; rat, in vivo, iv): 2.73 ± 1.16 h
O=C1CCC[C@@H]2[C@H]3CCCN4CCC[C@@H](CN12)[C@@H]34 [Compound A1, Matrine]	–	–	0.015 mL/min	57.40% and 57.40 ± 4.88%	exceeded 90%	0.0263 mL/min	0.00985 ± 0.00247 L	4.33 ± 2.18 h	–	IC50 (CYP2C8): > 100 µM; IC50 (UGT2B7): > 100 µM; clearance ([2]; plasma, rat, Kang-Ai injection 6 mL/kg iv, read-out: CLtot, p (converted)): 1.58 mL/h/kg; Vd ([2]; plasma, rat, Kang-Ai injection 6 mL/kg iv, read-out: VSS (Vd)): 0.00985 L/kg; AUC(0-t) ([2]; rat, plasma, iv, 6 mL/kg, rat plasma, 30-min iv infusion of Kang-Ai injection 6 mL/kg, unit per footnote # for matrine and oxymatrine, read-out: AUC0–12h): 68.6 ± 9.85 µM·h; Cmax ([2]; rat plasma, 30-min iv infusion of Kang-Ai injection 6 mL/kg, unit per footnote # for matrine and oxymatrine, read-out: Cmax): 15100 ± 3580 nM
CC(C)=CCC[C@](C)(O[C@@H]1O[C@H](CO[C@@H]2O[C@H](CO)[C@@H](O)[C@H](O)[C@H]2O)[C@@H](O)[C@H](O)[C@H]1O)[C@H]1CC[C@]2(C)[C@@H]1[C@H](O)C[C@@H]1[C@@]3(C)CC[C@H](O[C@@H]4O[C@H](CO)[C@@H](O)[C@H](O)[C@H]4O[C@@H]4O[C@H](CO)[C@@H](O)[C@H](O)[C@H]4O)C(C)(C)[C@@H]3CC[C@]12C [Compound D5, Ginsenoside Rb1]	> 100 µM	> 100 µM	0.00633 mL/min	6.41 ± 1.47%	–	0.103 mL/min	0.047 ± 0.0199 L	7.22 ± 7.03 h	497 ± 75.1 nM	–
CC(C)=CCC[C@](C)(O[C@@H]1O[C@H](CO[C@@H]2O[C@@H](CO)[C@H](O)[C@H]2O)[C@@H](O)[C@H](O)[C@H]1O)[C@H]1CC[C@]2(C)[C@@H]1[C@H](O)C[C@@H]1[C@@]3(C)CC[C@H](O[C@@H]4O[C@H](CO)[C@@H](O)[C@H](O)[C@H]4O[C@@H]4O[C@H](CO)[C@@H](O)[C@H](O)[C@H]4O)C(C)(C)[C@@H]3CC[C@]12C [Compound D3, Ginsenoside Rc]	> 100 µM	> 100 µM	0.00967 mL/min	10.48 ± 1.31%	–	0.0933 mL/min	0.0378 ± 0.0102 L	6.29 ± 3.17 h	877 ± 39.5 nM	–
CC(C)=CCC[C@](C)(O[C@@H]1O[C@H](CO)[C@@H](O)[C@H](O)[C@H]1O)[C@H]1CC[C@]2(C)[C@@H]1[C@H](O)C[C@@H]1[C@@]3(C)CC[C@H](O)C(C)(C)[C@@H]3[C@@H](O[C@@H]3O[C@H](CO)[C@@H](O)[C@H](O)[C@H]3O[C@@H]3O[C@@H](C)[C@H](O)[C@@H](O)[C@H]3O)C[C@]12C [Compound C9, Ginsenoside Re]	24 ± 10.7 µM	> 100 µM	0.767 mL/min	29.54 ± 6.03%	~60%	2.61 mL/min	0.101 ± 0.027 L	1.07 ± 0.84 h	1340 ± 88.1 nM	inhibition type (smallest AIC and SC) (CYP2C8; CYP2C8): mixed-type inhibition; Ki (CYP2C8; CYP2C8, competitive model): 8.2 ± 1.1 µM; Ki (CYP2C8; CYP2C8, mixed-type model): 13.3 ± 2.9 µM; α (CYP2C8; CYP2C8, mixed-type model): 4.2 ± 2.3; Ki (CYP2C8; CYP2C8, noncompetitive model): 26.5 ± 2.2 µM; Cmax/Ki ([I]/Ki) (CYP2C8; CYP2C8, selected model, rat plasma Cmax): 0.1; IC50 (CYP2C8; paclitaxel 60 μM, read-out: IC50 towards CYP2C8): 24 µM
CC(C)=CCC[C@](C)(O[C@@H]1O[C@H](CO)[C@@H](O)[C@H](O)[C@H]1O)[C@H]1CC[C@]2(C)[C@@H]1[C@H](O)C[C@@H]1[C@@]3(C)CC[C@H](O)C(C)(C)[C@@H]3[C@@H](O[C@@H]3O[C@H](CO)[C@@H](O)[C@H](O)[C@H]3O)C[C@]12C [Compound C6, Ginsenoside Rg1]	> 100 µM	> 100 µM	1.04 mL/min	39.79 ± 5.88%	~60%	2.61 mL/min	0.144 ± 0.0642 L	1.2 ± 1.23 h	1570 ± 175 nM	–
CC(C)=CCC[C@](C)(O[C@@H]1O[C@H](CO)[C@@H](O)[C@H](O)[C@H]1O)[C@H]1CC[C@]2(C)[C@@H]1[C@H](O)C[C@@H]1[C@@]3(C)CC[C@H](O[C@@H]4O[C@H](CO)[C@@H](O)[C@H](O)[C@H]4O[C@@H]4O[C@H](CO)[C@@H](O)[C@H](O)[C@H]4O)C(C)(C)[C@@H]3CC[C@]12C [Compound D2, Ginsenoside Rd]	> 100 µM	> 100 µM	0.0185 mL/min	19.00 ± 5.33%	about 25%	0.0972 mL/min	–	5.84 ± 3.13 h	766 ± 57.9 nM	Vd ([2]; plasma, rat, 30-min iv infusion of Kang-Ai injection 6 mL/kg, Table 1 unit): 0.0357 ± 0.0114 L/kg

From publication PMC7339578, “Multiple circulating alkaloids and saponins from intravenous Kang-Ai injection inhibit human cytochrome P450 and UDP-glucuronosyltransferase isozymes: potential drug–drug interactions” (Chinese Medicine, 2020)
